Assay [1] has as its target T1, human dopamine D3 receptors (Homo sapiens, UniProt P35462).
T1 construct: expressed in transfected cells
Description: Dopamine D3 receptor binding, displacement of [125I]-iodosulpride. To be noted: membranes from HEK-293 cells with stably expressed human D3 receptors, 0.1 nM [125I]-iodosulpride. Background: Displacement assays read how much labelled ligand stays bound in the presence of the test substance.

For assay [2], the target named is T2, human dopamine D2L receptors (long isoform) (Homo sapiens, UniProt P14416).
T2 construct: expressed in transfected cells
Put plainly: Dopamine D2L receptor binding, displacement of [125I]-iodospiperone. To be noted: *Ki(D2L)/Ki(D3), HEK-293 membranes, 0.01 nM [125I]-iodospiperone. In outline: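 Triplicate incubations ran 60 min at 25 °C in pH 7.4 Tris buffer with 120 mM NaCl, 5 mM KCl, 2 mM CaCl2, 2 mM MgCl2 and 0.1% BSA. Bound radioactivity was collected by GF/B filtration and counted as dpm. Inhibition curves were fitted by iterative nonlinear regression.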

By Ki is commonly meant the equilibrium dissociation constant of an inhibitor or competing ligand from its target.

Where a name gives a salt, the structure may show the parent alone.

T2 sequence (P14416 whole entry, canonical isoform): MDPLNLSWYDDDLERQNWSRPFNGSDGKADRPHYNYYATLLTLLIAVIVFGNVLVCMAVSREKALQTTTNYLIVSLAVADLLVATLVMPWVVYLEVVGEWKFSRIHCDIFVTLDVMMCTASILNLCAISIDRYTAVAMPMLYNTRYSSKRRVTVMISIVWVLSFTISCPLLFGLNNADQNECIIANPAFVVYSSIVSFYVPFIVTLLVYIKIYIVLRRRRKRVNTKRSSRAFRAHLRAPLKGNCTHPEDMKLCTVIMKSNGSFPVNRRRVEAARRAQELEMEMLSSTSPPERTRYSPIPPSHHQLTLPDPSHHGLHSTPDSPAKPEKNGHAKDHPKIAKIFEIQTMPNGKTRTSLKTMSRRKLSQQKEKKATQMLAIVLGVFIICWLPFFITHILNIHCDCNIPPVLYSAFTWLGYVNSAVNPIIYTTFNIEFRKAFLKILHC
T1 sequence (P35462 whole entry): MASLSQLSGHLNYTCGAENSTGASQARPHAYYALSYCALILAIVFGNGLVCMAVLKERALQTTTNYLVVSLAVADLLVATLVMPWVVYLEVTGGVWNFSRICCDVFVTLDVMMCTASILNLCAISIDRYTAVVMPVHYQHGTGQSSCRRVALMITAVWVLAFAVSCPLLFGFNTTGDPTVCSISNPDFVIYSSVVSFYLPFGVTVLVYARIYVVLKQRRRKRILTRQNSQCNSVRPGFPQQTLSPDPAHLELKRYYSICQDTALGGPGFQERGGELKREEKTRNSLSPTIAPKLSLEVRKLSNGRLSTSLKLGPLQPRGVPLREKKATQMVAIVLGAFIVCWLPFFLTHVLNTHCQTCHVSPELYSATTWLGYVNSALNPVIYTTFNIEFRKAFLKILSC

For the compound `CCCc1cc(N2CCN(CCCCn3ccc(-c4cccs4)nc3=O)CC2)nc(C(C)(C)C)n1` [Example 87, 1-{4-[4-(2-tert-Butyl-6-propylpyrimidin-4-yl)piperazin-1-yl]butyl}-4-thiophen-2-yl-1H-pyrimidin-2-one], the Ki in assay [1] turned out to be 0.97 nM. For the same compound, in assay [2], the “Selectivity D3 vs. D2L*” value worked out at 31.

`CCCc1cc(N2CCN(CCCCn3cc(C(F)(F)F)c(=O)[nH]c3=O)CC2)nc(C(C)(C)C)n1` [Example 56, 1-{4-[4-(2-tert-Butyl-6-propylpyrimidin-4-yl)piperazin-1-yl]butyl}-5-trifluoromethyl-1H-pyrimidine-2,4-dione] returned a Ki in assay [1] of 1.02 nM. Further, in assay [2], the “Selectivity D3 vs. D2L*” value came out at 134.

Compound `COc1cc(OC)cc(N2CCN(CCCCn3cc(C)c(=O)[nH]c3=O)CC2)c1` [Example 134, 1-{4-[4-(3,5-Dimethoxyphenyl)piperazin-1-yl]butyl}-5-methyl-1H-pyrimidine-2,4-dione] had a Ki in assay [1] of 13.1 nM. Moreover, the “Selectivity D3 vs. D2L*” value in assay [2] turned out to be 55.

The compound `CCOc1ccn(CCCCN2CCN(c3cc(C(F)(F)F)nc(C(C)(C)C)n3)CC2)c(=O)n1` [Example 85, 4-(2-tert-Butyl-6-trifluoromethylpyrimidin-4-yl)-1-[4-(4-ethoxy-2-oxo-2H-pyrimidin-1-yl)butyl]piperazin-1-ium fumarate] registered a Ki in assay [1] of 7.36 nM. Besides, the “Selectivity D3 vs. D2L*” value in assay [2] is 35.

In turn, `CC(C)(C)c1nc(N2CCN(CCCCn3ccc(-c4ccsc4)nc3=O)CC2)cc(C(F)(F)F)n1` [Example 92, 4-(2-tert-Butyl-6-trifluoromethylpyrimidin-4-yl)-1-[4-(2-oxo-4-thiophen-3-yl-2H-pyrimidin-1-yl)butyl]piperazin-1-ium fumarate] had a Ki in assay [1] of 4.56 nM. Besides, in assay [2], the “Selectivity D3 vs. D2L*” value came to 31.

`CCCc1cc(N2CCN(C(C)CCCn3cc(C)c(=O)[nH]c3=O)CC2)nc(C(C)(C)C)n1` (single isomer, unassigned; (+)) [Example 63, (+)-1-{4-[4-(2-tert-Butyl-6-propylpyrimidin-4-yl)piperazin-1-yl]pentyl}-5-methyl-1H-pyrimidine-2,4-dione] gave a Ki in assay [1] of 2.97 nM. For the same compound, in assay [2], the “Selectivity D3 vs. D2L*” value amounted to 65.

For the compound `Cc1cn(CCCCN2CCN(c3cc(C(F)(F)F)cc(C(F)(F)F)c3)CC2)c(=O)[nH]c1=O` [Example 125, 1-{4-[4-(3,5-Bis-trifluoromethylphenyl)piperazin-1-yl]butyl}-5-methyl-1H-pyrimidine-2,4-dione], in assay [1], affinity was put at a Ki of 6.8 nM. Besides, in assay [2], the “Selectivity D3 vs. D2L*” value is listed as 63.

For `Cc1cn(CCCCN2CCN(c3ccc(F)cc3F)CC2)c(=O)[nH]c1=O` [Example 131, 1-{4-[4-(2,4-Difluorophenyl)piperazin-1-yl]butyl}-5-methyl-1H-pyrimidine-2,4-dione], the Ki in assay [1] was 25.7 nM. In assay [2], the “Selectivity D3 vs. D2L*” value is on record as 30.

`Cc1cn(CCCCN2CCN(c3cc(C(C)C)nc(C(C)(C)C)n3)CC2)c(=O)[nH]c1=O.Cl` [Example 40, 4-(2-tert-Butyl-6-isopropylpyrimidin-4-yl)-1-[4-(5-methyl-2,4-dioxo-3,4-dihydro-2H-pyrimidin-1-yl)-butyl]piperazin-1-ium chloride] yielded a Ki in assay [1] of 2.12 nM. In assay [2], the “Selectivity D3 vs. D2L*” value worked out at 67.

Take `CC(C)(C)c1nc(N2CCN(CCCCn3ccc(O)nc3=O)CC2)cc(C(F)(F)F)n1` [Example 13]: in assay [1], the Ki is 1.88 nM. Also, the “Selectivity D3 vs. D2L*” value in assay [2] is on record as 104.

With “1-{4-[4-(2,3-Dichlorophenyl)piperazin-1-yl]butyl}-5-methyl-1H-pyrimidine-2,4-dione [Example 82]”, the Ki in assay [1] came to 0.31 nM. Also, in assay [2], the “Selectivity D3 vs. D2L*” value is recorded as 54.

`CCCc1cc(N2CCN(CCCCn3ccc(-c4ccccc4C)nc3=O)CC2)nc(C(C)(C)C)n1` [Example 57, 4-(2-tert-Butyl-6-propylpyrimidin-4-yl)-1-[4-(2-oxo-4-(o-tolyl)-2H-pyrimidin-1-yl)butyl]-piperazin-1-ium fumarate]: in assay [1], the Ki stood at 0.96 nM. Also, the “Selectivity D3 vs. D2L*” value in assay [2] stood at 111.

Take `CC(C)(C)c1nc(N2CCN(CCCCn3cc(C(F)(F)F)c(=O)[nH]c3=O)CC2)cc(C(F)(F)F)n1` [Example 55, 1-{4-[4-(2-tert-Butyl-6-trifluoromethylpyrimidin-4-yl)piperazin-1-yl]butyl}-5-trifluoromethyl-1H-pyrimidine-2,4-dione]: in assay [1], the Ki was determined as 5.44 nM. Moreover, the “Selectivity D3 vs. D2L*” value in assay [2] is on record as 119.

Regarding `Cc1cn(CCCCN2CCN(c3ccccc3Cl)CC2)c(=O)[nH]c1=O` [Example 127, 1-{4-[4-(2-Chlorophenyl)piperazin-1-yl]butyl}-5-methyl-1H-pyrimidine-2,4-dione], in assay [1], the Ki came out at 1.5 nM. In addition, the “Selectivity D3 vs. D2L*” value in assay [2] was 45.

The compound `CCCc1cc(N2CCN(CCCCn3ccc(OCC)nc3=O)CC2)nc(C(C)(C)C)n1` [Example 86, 4-(2-tert-Butyl-6-propylpyrimidin-4-yl)-1-[4-(4-ethoxy-2-oxo-2H-pyrimidin-1-yl)butyl]piperazin-1-ium fumarate] returned a Ki in assay [1] of 2.44 nM. In addition, the “Selectivity D3 vs. D2L*” value in assay [2] was 43.

On to `CC(C)(C)c1nc(N2CCN(CCCCn3cc(Cl)c(=O)[nH]c3=O)CC2)cc(C(F)(F)F)n1` [Example 52, 1-{4-[4-(2-tert-Butyl-6-trifluoromethylpyrimidin-4-yl)piperazin-1-yl]butyl}-5-chloro-1H-pyrimidine-2,4-dione], for which, in assay [1], the affinity corresponds to a Ki of 2.28 nM. Further, the “Selectivity D3 vs. D2L*” value in assay [2] amounted to 97.

As to `CC(C)(C)c1nc(N2CCN(CCCCn3ccc(-c4ccc(F)cc4)nc3=O)CC2)cc(C(F)(F)F)n1.Cl` [Example 45, 4-(2-tert-Butyl-6-trifluoromethylpyrimidin-4-yl)-1-{4-[4-(4-fluorophenyl)-2-oxo-2H-pyrimidin-1-yl]butyl}piperazin-1-ium chloride], the affinity in assay [1] corresponds to a Ki of 4.99 nM. The “Selectivity D3 vs. D2L*” value in assay [2] worked out at 37.

In assay [1], `CCCc1cc(N2CCN(CCCCn3ccc(-c4cccc(C)c4)nc3=O)CC2)nc(C(C)(C)C)n1` [Example 59, 1-{4-[4-(2-tert-Butyl-6-propylpyrimidin-4-yl)piperazin-1-yl]butyl}-4-(m-tolyl)-1H-pyrimidin-2-one] came in with a Ki of 1.8 nM. Besides, the “Selectivity D3 vs. D2L*” value in assay [2] was 44.

Take `CC(C)(C)c1nc(N2CCN(CCCCn3ccc(-c4cccc(F)c4)nc3=O)CC2)cc(C(F)(F)F)n1` [Example 73, 4-(2-tert-Butyl-6-trifluoromethylpyrimidin-4-yl)-1-{4-[4-(3-fluorophenyl)-2-oxo-2H-pyrimidin-1-yl]butyl}piperazin-1-ium fumarate]: in assay [1], the Ki came out at 9.3 nM. Further, in assay [2], the “Selectivity D3 vs. D2L*” value was 31.

As for `Cc1cn(CCCCN2CCN(c3cccc(C(F)(F)F)c3)CC2)c(=O)[nH]c1=O` [Example 129, 5-Methyl-1-{4-[4-(3-trifluoromethylphenyl)piperazin-1-yl]butyl}-1H-pyrimidine-2,4-dione], affinity in assay [1] was put at a Ki of 1.3 nM. In addition, the “Selectivity D3 vs. D2L*” value in assay [2] is 48.

`CCCc1cc(N2CCN(CCCCn3cc(C#N)c(=O)[nH]c3=O)CC2)nc(C(C)(C)C)n1` [Example 47, 1-{4-[4-(2-tert-Butyl-6-propylpyrimidin-4-yl)piperazin-1-yl]butyl}-2,4-dioxo-1,2,3,4-tetrahydropyrimidine-5-carbonitrile] showed a Ki in assay [1] of 4.87 nM. In addition, the “Selectivity D3 vs. D2L*” value in assay [2] was 51.

On to “1-{4-[4-(2-tert-Butyl-6-propylpyrimidin-4-yl)piperazin-1-yl]butyl}-4-methyl-1H-pyrimidin-2-one [Example 69]”, for which, in assay [1], the Ki turned out to be 1.8 nM. Besides, the “Selectivity D3 vs. D2L*” value in assay [2] was 54.

In turn, `Cc1cn(CC(C)CCN2CCN(c3cc(C(F)(F)F)nc(C(C)(C)C)n3)CC2)c(=O)[nH]c1=O` (single isomer, unassigned; (-)) [Example 64, (−)-1-{4-[4-(2-tert-Butyl-6-trifluoromethylpyrimidin-4-yl)piperazin-1-yl]-2-methylbutyl}-5-methyl-1H-pyrimidine-2,4-dione] displayed a Ki in assay [1] of 2.57 nM. Moreover, the “Selectivity D3 vs. D2L*” value in assay [2] worked out at 57.

Compound `CC(C)(C)c1cc(N2CCN(CCCCn3ccc(=O)[nH]c3=O)CC2)nc(C(C)(C)C)n1` [Example 33, 1-{4-[4-(2,6-di-tert-Butylpyrimidin-4-yl)piperazin-1-yl]butyl}pyrimidine-2,4(1H,3H)-dione] came in with a Ki in assay [1] of 0.7 nM. Moreover, in assay [2], the “Selectivity D3 vs. D2L*” value is 42.

The values are drawn from patent US8008488B2 (Abbott GmbH & Co. KG, priority 2003, dated 2011).
